According to PubChem BioAssay AID248 (DTP/NCI, 2004):
“And” between values parts separate entries of the source, which are not always exact repeats. Identical values can stand only once. Toxic doses and inconclusive results are not listed. Cut-off read from the data, not from the text of the source: active = T/C of 150% or more; inactive = T/C below 125%.

System: L1210 leukemia ip in BDF1 mice, survival T/C
Assay: NCI In Vivo Anticancer Drug Screen. Data for tumor model L1210 Leukemia (intraperitoneal) in B6D2F1 (BDF1) mice
Details: endpoint: mean survival time, higher = longer survival
Method in brief: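 Tumor was transplanted into mice, which were then dosed with test compound or vehicle alone. Survival was recorded for each group, and the treated figure was expressed relative to the control figure.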

[1] = dose: 100.0 mg/kg/injection, schedule: Q01DX001 (ip), vehicle: Klucel (hydroxypropylcellulose) (HPC)
[2] = dose: 100.0 mg/kg/injection, schedule: Q01DX009 (ip), vehicle: Klucel (hydroxypropylcellulose) (HPC)
[3] = dose: 200.0 mg/kg/injection, schedule: Q01DX001 (ip), vehicle: Klucel (hydroxypropylcellulose) (HPC)
[4] = dose: 200.0 mg/kg/injection, schedule: Q01DX009 (ip), vehicle: Klucel (hydroxypropylcellulose) (HPC)
[5] = dose: 400.0 mg/kg/injection, schedule: Q01DX001 (ip), vehicle: Klucel (hydroxypropylcellulose) (HPC)
[6] = dose: 100.0 mg/kg/injection, schedule: Q04DX003 (ip), vehicle: Klucel (hydroxypropylcellulose) (HPC)
[7] = dose: 200.0 mg/kg/injection, schedule: Q04DX003 (ip), vehicle: Klucel (hydroxypropylcellulose) (HPC)
[8] = dose: 400.0 mg/kg/injection, schedule: Q04DX003 (ip), vehicle: Klucel (hydroxypropylcellulose) (HPC)
[9] = dose: 100.0 mg/kg/injection, schedule: Q04DX002 (ip), vehicle: Klucel (hydroxypropylcellulose) (HPC)
[10] = dose: 200.0 mg/kg/injection, schedule: Q04DX002 (ip), vehicle: Klucel (hydroxypropylcellulose) (HPC)
[11] = dose: 400.0 mg/kg/injection, schedule: Q04DX002 (ip), vehicle: Klucel (hydroxypropylcellulose) (HPC)
[12] = dose: 50.0 mg/kg/injection, schedule: Q01DX009 (ip), vehicle: saline
[13] = dose: 100.0 mg/kg/injection, schedule: Q01DX009 (ip), vehicle: saline
[14] = dose: 25.0 mg/kg/injection, schedule: Q04DX002 (ip), vehicle: saline
[15] = dose: 50.0 mg/kg/injection, schedule: Q04DX002 (ip), vehicle: saline
[16] = dose: 100.0 mg/kg/injection, schedule: Q01DX001 (ip), vehicle: saline
[17] = dose: 400.0 mg/kg/injection, schedule: Q01DX009 (ip), vehicle: Klucel (hydroxypropylcellulose) (HPC)

Measured: T/C

O=C1CCCCC1C(=O)C(F)(F)F (stereo not given)
inactive: dose: 12.5 mg/kg/injection, schedule: Q01DX009 (ip), vehicle: other 104 % of control | dose: 12.5 mg/kg/injection, schedule: Q04DX003 (ip), vehicle: other 103 % of control | dose: 25.0 mg/kg/injection, schedule: Q01DX009 (ip), vehicle: other 104 % of control | dose: 25.0 mg/kg/injection, schedule: Q04DX003 (ip), vehicle: other 93 % of control | dose: 50.0 mg/kg/injection, schedule: Q01DX009 (ip), vehicle: other 98 % of control | dose: 50.0 mg/kg/injection, schedule: Q04DX003 (ip), vehicle: other 97 % of control | dose: 75.0 mg/kg/injection, schedule: Q01DX009 (ip), vehicle: other 97 % of control | dose: 115.0 mg/kg/injection, schedule: Q01DX009 (ip), vehicle: other 87 % of control | dose: 170.0 mg/kg/injection, schedule: Q01DX009 (ip), vehicle: other 89 % of control

COc1cc2c(c(OC)c1OC)-c1ccc(=O)c(OC)cc1[C@@H](NC(=O)CCl)CC2
inactive: [1] 94 % of control | [2] 103 % of control | [3] 98 % of control | [4] 103 % of control | [5] 105 % of control

CC1CC(C#N)Nc2ccccc2N1 (stereo not given)
inactive: dose: 50.0 mg/kg/injection, schedule: Q01DX001 (ip), vehicle: Klucel (hydroxypropylcellulose) (HPC) 109 % of control | dose: 50.0 mg/kg/injection, schedule: Q01DX009 (ip), vehicle: Klucel (hydroxypropylcellulose) (HPC) 96 % of control | dose: 50.0 mg/kg/injection, schedule: Q04DX003 (ip), vehicle: Klucel (hydroxypropylcellulose) (HPC) 98 % of control | [1] 106 % of control | [2] 93 % of control and 121 % of control | [6] 100 % of control and 104 % of control | [3] 104 % of control | [4] 86 % of control | [7] 96 % of control and 90 % of control | [8] 101 % of control

O=C1CCCCC1C(=O)C(F)(F)C(F)(F)C(F)(F)F (stereo not given)
inactive: dose: 90.0 mg/kg/injection, schedule: Q01DX Z (ip), vehicle: methylcellulose (MC) 97 % of control | dose: 150.0 mg/kg/injection, schedule: Q01DX Z (ip), vehicle: methylcellulose (MC) 102 % of control | dose: 222.0 mg/kg/injection, schedule: Q01DX Z (ip), vehicle: methylcellulose (MC) 97 % of control | dose: 333.0 mg/kg/injection, schedule: Q01DX Z (ip), vehicle: methylcellulose (MC) 102 % of control

CC(C)CCN1C(c2ccccc2)=CN(Cc2ccccc2)C=C1c1ccccc1
inactive: [9] 100 % of control | [10] 92 % of control | [11] 95 % of control

CCOC(=O)c1cnc(C)nc1NCc1ccccc1
inactive: [1] 101 % of control | [3] 103 % of control | [5] 113 % of control

OCCN1C(c2ccccc2)C1c1ccccc1 (stereo not given)
inactive: dose: 100.0 mg/kg/injection, schedule: Q04DX003 (ip), vehicle: saline with Tween-80 102 % of control | dose: 200.0 mg/kg/injection, schedule: Q04DX003 (ip), vehicle: saline with Tween-80 93 % of control | dose: 400.0 mg/kg/injection, schedule: Q04DX003 (ip), vehicle: saline with Tween-80 97 % of control

CC(C)(C)C(=O)CC(=O)C(C)(C)C.CC(C)(C)C(=O)CC(=O)C(C)(C)C.CC(C)(C)C(=O)CC(=O)C(C)(C)C.[Eu]
inactive: [9] 97 % of control | [10] 106 % of control | [11] 87 % of control

CNCCN(C)CCNC
inactive: [12] 104 % of control | [13] 101 % of control | dose: 100.0 mg/kg/injection, schedule: Q04DX003 (ip), vehicle: saline 103 % of control | dose: 200.0 mg/kg/injection, schedule: Q04DX003 (ip), vehicle: saline 96 % of control

COc1cc(Cn2cccc2/C=N/NC(N)=S)c([N+](=O)[O-])cc1OC
inactive: dose: 25.0 mg/kg/injection, schedule: Q04DX002 (ip), vehicle: Klucel (hydroxypropylcellulose) (HPC) 100 % of control | dose: 50.0 mg/kg/injection, schedule: Q04DX002 (ip), vehicle: Klucel (hydroxypropylcellulose) (HPC) 104 % of control | [9] 93 % of control

CC(C)(C)N1CC1
inactive: [14] 103 % of control | [12] 101 % of control | [15] 93 % of control | [16] 106 % of control | [13] 111 % of control | dose: 100.0 mg/kg/injection, schedule: Q04DX002 (ip), vehicle: saline 93 % of control | dose: 200.0 mg/kg/injection, schedule: Q01DX001 (ip), vehicle: saline 106 % of control | dose: 200.0 mg/kg/injection, schedule: Q01DX009 (ip), vehicle: saline 103 % of control

COc1ccc(C=O)c(Br)c1O
inactive: [2] 103 % of control | [6] 104 % of control | [4] 97 % of control | [7] 103 % of control | [17] 97 % of control | [8] 101 % of control

CCOC(=O)C1CSCC1=O (stereo not given)
inactive: dose: 25.0 mg/kg/injection, schedule: Q01DX009 (ip), vehicle: water 97 % of control | dose: 50.0 mg/kg/injection, schedule: Q01DX009 (ip), vehicle: water 90 % of control | dose: 100.0 mg/kg/injection, schedule: Q01DX009 (ip), vehicle: water 104 % of control

CC(=O)OC[C@]12CCC(C)=CC1O[C@@H]1C(OC(C)=O)[C@@H](O)[C@@]2(C)[C@]12CO2 (stereo not given in full)
inactive: dose: 0.4 mg/kg/injection, schedule: Q01DX009 (ip), vehicle: other 97 % of control | dose: 0.8 mg/kg/injection, schedule: Q01DX009 (ip), vehicle: other 114 % of control | dose: 1.6 mg/kg/injection, schedule: Q01DX009 (ip), vehicle: other 114 % of control | dose: 3.2 mg/kg/injection, schedule: Q01DX009 (ip), vehicle: other 116 % of control

CC1OCC2OC(C)OC(C(COC(=O)c3ccc([N+](=O)[O-])cc3)OS(C)(=O)=O)C2O1 (stereo not given)
inactive: [2] 113 % of control | [6] 102 % of control | [4] 108 % of control | [7] 104 % of control | [17] 92 % of control | [8] 96 % of control

Oc1c(Cl)cc(Cl)c2cccnc12
inactive: dose: 12.5 mg/kg/injection, schedule: Q01DX009 (ip), vehicle: saline with Tween-80 92 % of control | dose: 25.0 mg/kg/injection, schedule: Q01DX009 (ip), vehicle: saline with Tween-80 90 % of control | dose: 50.0 mg/kg/injection, schedule: Q01DX001 (ip), vehicle: carboxymethylcellulose (CMC) 98 % of control | dose: 50.0 mg/kg/injection, schedule: Q01DX009 (ip), vehicle: saline with Tween-80 92 % of control | dose: 100.0 mg/kg/injection, schedule: Q01DX001 (ip), vehicle: carboxymethylcellulose (CMC) 91 % of control | dose: 100.0 mg/kg/injection, schedule: Q01DX009 (ip), vehicle: saline with Tween-80 94 % of control

CCCCN(CCCC)/N=N/c1nc[nH]c1C(=O)OC
inactive: dose: 100.0 mg/kg/injection, schedule: Q01DX001 (ip), vehicle: other 97 % of control | dose: 200.0 mg/kg/injection, schedule: Q01DX001 (ip), vehicle: other 97 % of control

CNc1nc2c(N)ncnc2n1C1OC(CO)C(O)C1O (stereo not given)
inactive: dose: 12.5 mg/kg/injection, schedule: Q04DX002 (ip), vehicle: saline 100 % of control | [14] 103 % of control | dose: 25.0 mg/kg/injection, schedule: Q04DX002 (ip), vehicle: suspension in saline 104 % of control | dose: 50.0 mg/kg/injection, schedule: Q01DX001 (ip), vehicle: saline 104 % of control | [15] 113 % of control | dose: 50.0 mg/kg/injection, schedule: Q04DX002 (ip), vehicle: suspension in saline 106 % of control | [16] 110 % of control | dose: 100.0 mg/kg/injection, schedule: Q04DX002 (ip), vehicle: suspension in saline 106 % of control
